The results in this text go back to patent US20260183275A1, “SUBSTITUTED QUINOLONE COMPOUNDS USEFUL AS INHIBITORS OF TLR9” (Bristol-Myers Squibb Company, priority 2022, published 2026).

Type in all cases: cell-based
Assay [1] has as its target T1, human TLR8 (Homo sapiens, UniProt Q9NR97).
T1 construct: host or cells: HEK-Blue cells
T1 sequence (Q9NR97 27-1041): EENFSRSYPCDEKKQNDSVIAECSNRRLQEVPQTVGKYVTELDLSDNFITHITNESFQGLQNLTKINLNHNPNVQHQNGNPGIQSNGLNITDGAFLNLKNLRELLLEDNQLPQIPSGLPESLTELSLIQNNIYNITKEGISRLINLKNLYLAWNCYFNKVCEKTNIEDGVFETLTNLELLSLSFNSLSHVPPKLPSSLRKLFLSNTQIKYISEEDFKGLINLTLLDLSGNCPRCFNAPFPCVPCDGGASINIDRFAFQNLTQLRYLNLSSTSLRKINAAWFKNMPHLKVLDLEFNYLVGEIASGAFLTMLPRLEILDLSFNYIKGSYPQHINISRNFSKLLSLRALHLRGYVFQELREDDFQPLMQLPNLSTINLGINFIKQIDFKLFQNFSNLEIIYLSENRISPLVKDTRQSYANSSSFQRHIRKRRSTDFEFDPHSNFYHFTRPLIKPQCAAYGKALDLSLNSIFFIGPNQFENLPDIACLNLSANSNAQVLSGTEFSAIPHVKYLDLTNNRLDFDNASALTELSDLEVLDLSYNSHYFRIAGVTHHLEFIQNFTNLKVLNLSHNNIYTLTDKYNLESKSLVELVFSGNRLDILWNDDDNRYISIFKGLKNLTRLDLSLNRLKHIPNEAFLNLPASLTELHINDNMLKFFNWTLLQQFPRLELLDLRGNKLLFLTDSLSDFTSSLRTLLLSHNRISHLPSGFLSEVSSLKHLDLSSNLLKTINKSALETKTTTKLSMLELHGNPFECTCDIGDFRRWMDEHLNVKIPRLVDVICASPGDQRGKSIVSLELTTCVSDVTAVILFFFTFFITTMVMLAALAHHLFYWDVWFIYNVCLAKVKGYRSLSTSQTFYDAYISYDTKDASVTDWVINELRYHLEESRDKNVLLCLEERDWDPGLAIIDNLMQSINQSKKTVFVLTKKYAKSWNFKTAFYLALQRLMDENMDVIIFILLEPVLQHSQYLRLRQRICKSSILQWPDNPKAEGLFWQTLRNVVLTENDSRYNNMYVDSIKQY
As to the kind of experiment: TLR8 inhibition reporter assay (HEK-Blue cells, SEAP reporter). Conditions: HEK-Blue cells overexpressing human TLR8; stimulated with R848 15.9 μM; SEAP read after 22 hour; dose range 0.05 nM-50 μM. Put shortly: (§1)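 HEK-Blue cells with NF-κB/AP-1-driven SEAP pre-treated 30 min with compounds (0.05 nM-50 μM), then stimulated with gardiquimod 7.5 μM (TLR7), R848 15.9 μM (TLR8) or ODN2006 5 nM (TLR9). SEAP read after 22 h at 37° C; % inhibition relative to agonist+DMSO and reference-inhibitor wells.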

Assay [2] deals with T2, human TLR7 (Homo sapiens, UniProt Q9NYK1).
T2 construct: host or cells: HEK-Blue cells
T2 sequence (Q9NYK1 27-1049): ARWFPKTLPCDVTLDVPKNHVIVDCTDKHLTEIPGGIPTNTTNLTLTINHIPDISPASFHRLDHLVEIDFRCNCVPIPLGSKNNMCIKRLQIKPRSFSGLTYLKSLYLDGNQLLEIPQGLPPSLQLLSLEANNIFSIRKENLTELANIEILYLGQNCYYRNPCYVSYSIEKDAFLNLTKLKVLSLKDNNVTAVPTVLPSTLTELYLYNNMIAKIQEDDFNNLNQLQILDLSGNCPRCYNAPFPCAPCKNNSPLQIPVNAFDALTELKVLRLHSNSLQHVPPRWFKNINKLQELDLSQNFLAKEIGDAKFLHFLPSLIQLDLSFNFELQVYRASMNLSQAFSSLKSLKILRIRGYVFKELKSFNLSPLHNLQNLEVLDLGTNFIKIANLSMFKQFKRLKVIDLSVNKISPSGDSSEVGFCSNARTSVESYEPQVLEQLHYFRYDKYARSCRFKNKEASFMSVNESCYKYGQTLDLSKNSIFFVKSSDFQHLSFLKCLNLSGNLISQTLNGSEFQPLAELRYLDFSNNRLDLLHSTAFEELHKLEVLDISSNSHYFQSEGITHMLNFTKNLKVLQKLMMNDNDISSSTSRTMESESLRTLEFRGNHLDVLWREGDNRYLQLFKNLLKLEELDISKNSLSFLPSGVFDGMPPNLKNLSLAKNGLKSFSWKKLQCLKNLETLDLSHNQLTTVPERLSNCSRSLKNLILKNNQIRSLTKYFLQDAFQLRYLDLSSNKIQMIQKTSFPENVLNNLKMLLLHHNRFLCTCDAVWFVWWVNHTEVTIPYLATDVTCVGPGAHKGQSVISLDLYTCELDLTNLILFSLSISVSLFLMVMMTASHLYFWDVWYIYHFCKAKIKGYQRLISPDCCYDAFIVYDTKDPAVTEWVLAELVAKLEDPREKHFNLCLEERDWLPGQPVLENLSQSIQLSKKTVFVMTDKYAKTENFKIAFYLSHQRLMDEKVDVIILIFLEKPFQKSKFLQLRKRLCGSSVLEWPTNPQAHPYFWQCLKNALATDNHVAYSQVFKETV
As to the kind of experiment: TLR7 inhibition reporter assay (HEK-Blue cells, SEAP reporter). Conditions: HEK-Blue cells overexpressing human TLR7; stimulated with gardiquimod 7.5 μM; SEAP read after 22 hour; dose range 0.05 nM-50 μM. Put shortly:
as §1
For orientation: In a reporter assay the amount or activity of a reporter protein is the signal.

In assay [3] the target is T3, human TLR9 (Homo sapiens, UniProt Q9NR96).
T3 construct: host or cells: HEK-Blue cells
T3 sequence (Q9NR96 26-1032): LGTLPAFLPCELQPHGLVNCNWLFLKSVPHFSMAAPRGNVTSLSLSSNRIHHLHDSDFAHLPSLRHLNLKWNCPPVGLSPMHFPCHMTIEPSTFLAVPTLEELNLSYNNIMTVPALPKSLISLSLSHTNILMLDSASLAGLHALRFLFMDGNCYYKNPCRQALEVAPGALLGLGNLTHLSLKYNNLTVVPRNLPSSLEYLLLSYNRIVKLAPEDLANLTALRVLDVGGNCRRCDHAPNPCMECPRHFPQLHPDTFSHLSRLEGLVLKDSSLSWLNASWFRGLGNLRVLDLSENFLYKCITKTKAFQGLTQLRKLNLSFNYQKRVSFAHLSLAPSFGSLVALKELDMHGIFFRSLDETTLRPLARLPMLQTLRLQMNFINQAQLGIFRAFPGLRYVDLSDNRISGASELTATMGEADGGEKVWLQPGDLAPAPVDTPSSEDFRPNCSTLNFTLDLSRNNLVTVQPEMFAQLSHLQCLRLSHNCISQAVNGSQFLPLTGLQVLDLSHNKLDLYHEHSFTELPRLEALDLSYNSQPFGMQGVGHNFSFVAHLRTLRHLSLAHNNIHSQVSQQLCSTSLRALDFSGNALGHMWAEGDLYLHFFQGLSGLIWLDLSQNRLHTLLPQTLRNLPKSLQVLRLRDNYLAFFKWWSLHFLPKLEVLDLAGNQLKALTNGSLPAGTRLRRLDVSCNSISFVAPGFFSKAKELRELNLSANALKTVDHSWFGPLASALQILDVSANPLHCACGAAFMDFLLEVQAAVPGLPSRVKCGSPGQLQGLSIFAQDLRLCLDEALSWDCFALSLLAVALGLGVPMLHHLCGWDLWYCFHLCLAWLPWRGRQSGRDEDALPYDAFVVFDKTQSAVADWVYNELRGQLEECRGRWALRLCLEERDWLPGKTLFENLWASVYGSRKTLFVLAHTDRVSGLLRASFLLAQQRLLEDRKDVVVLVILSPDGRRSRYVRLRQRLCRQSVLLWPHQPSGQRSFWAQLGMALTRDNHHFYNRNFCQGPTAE
In words: TLR9 inhibition reporter assay (HEK-Blue cells, SEAP reporter). Conditions: HEK-Blue cells overexpressing human TLR9; stimulated with ODN2006 5 nM; SEAP read after 22 hour; dose range 0.05 nM-50 μM. Put shortly:
as §1

As to `CN1CCC(c2ccc(-c3ccc4[nH]c(=O)c(-c5ccc(S(C)(=O)=O)cc5)cc4c3)cc2)CC1` [Example 76, 3-(4-methanesulfonylphenyl)-6-[4-(1-methylpiperidin-4-yl)phenyl]-1,2-dihydroquinolin-2-one], the IC50 came out at 9850 nM in assay [1], 2030 nM in assay [2] and 261 nM in assay [3].
Take `CCc1c(-c2ccc(S(C)(=O)=O)cc2)c(=O)n(C)c2ccc(-c3ccc(N4CCN(C(C)C)CC4)cc3)cc12` [Example 77, 4-ethyl-3-(4-methanesulfonylphenyl)-1-methyl-6-{4-[4-(propan-2-yl)piperazin-1-yl]phenyl}-1,2-dihydroquinolin-2-one]: the half-maximal inhibitory concentration (IC50) stood at 361 nM in assay [1], 10200 nM in assay [2] and 267 nM in assay [3].
The matching figures for `CN1CCC(c2ccc(-c3ccc4c(c3)cc(-c3ccc(S(C)(=O)=O)cc3)c(=O)n4C)cc2)CC1` [Example 78, 3-(4-methanesulfonylphenyl)-1-methyl-6-[4-(1-methylpiperidin-4-yl)phenyl]-1,2-dihydroquinolin-2-one]: 2260 nM, 2120 nM and 286 nM.
The matching figures for `CCn1c(=O)c(-c2ccc(S(C)(=O)=O)cc2)cc2cc(-c3ccc(C4CCN(C(C)C)CC4)cc3)ccc21` [Example 79, 1-ethyl-3-(4-methanesulfonylphenyl)-6-{4-[1-(propan-2-yl)piperidin-4-yl]phenyl}-1,2-dihydroquinolin-2-one]: 25800 nM, 5330 nM and 287 nM.
For `CCCn1c(=O)c(-c2ccc(S(C)(=O)=O)cc2)cc2cc(-c3ccc(C4CCN(C(C)C)CC4)cc3)ccc21` [Example 80, 3-(4-methanesulfonylphenyl)-6-{4-[1-(propan-2-yl)piperidin-4-yl]phenyl}-1-propyl-1,2-dihydroquinolin-2-one], the IC50 in assay [1] was determined as 15100 nM; in assay [2], 8380 nM; in assay [3] it was 298 nM.
The matching figures for `CC(=O)Nc1ccc(-c2cc3cc(-c4ccc(C5CCN(C(C)C)CC5)cc4)ccc3[nH]c2=O)cc1` [Example 81, N-[4-(2-oxo-6-{4-[1-(propan-2-yl)piperidin-4-yl]phenyl}-1,2-dihydroquinolin-3-yl)phenyl]acetamide]: 796 nM, 333 nM and 309 nM.
The matching figures for `CC(C)N1CCC(c2ccc(-c3ccc4c(c3)cc(-c3ccc(S(C)(=O)=O)cc3)c(=O)n4CCCO)cc2)CC1` [Example 82, 1-(3-hydroxypropyl)-3-(4-methanesulfonylphenyl)-6-{4-[1-(propan-2-yl)piperidin-4-yl]phenyl}-1,2-dihydroquinolin-2-one]: 19100 nM, 5500 nM and 312 nM.
For `CC(C)N1CCC(c2ccc(-c3ccc4[nH]c(=O)c(-c5ccc(NS(C)(=O)=O)cc5)cc4c3)cc2)CC1` [Example 83, N-[4-(2-oxo-6-{4-[1-(propan-2-yl)piperidin-4-yl]phenyl}-1,2-dihydroquinolin-3-yl)phenyl]methanesulfonamide] the same measures were ≥ 50000 nM, 369 nM and 354 nM.
Regarding `CCc1c(-c2ccc(S(C)(=O)=O)cc2)c(=O)[nH]c2ccc(-c3ccc(N4CCN(C(C)C)CC4)cc3)cc12` [Example 84, 4-ethyl-3-(4-methanesulfonylphenyl)-6-{4-[4-(propan-2-yl)piperazin-1-yl]phenyl}-1,2-dihydroquinolin-2-one], the IC50 in assay [1] came to 672 nM; in assay [2], 2320 nM; in assay [3], 389 nM.
For `CC(C)Cn1c(=O)c(-c2ccc(S(C)(=O)=O)cc2)cc2cc(-c3ccc(C4CCN(C(C)C)CC4)cc3)ccc21` [Example 85, 3-(4-methanesulfonylphenyl)-1-(2-methylpropyl)-6-{4-[1-(propan-2-yl)piperidin-4-yl]phenyl}-1,2-dihydroquinolin-2-one] the same measures were 26300 nM, 14600 nM and 400 nM.
The matching figures for `CCc1c(-c2ccc(S(C)(=O)=O)cc2)c(=O)n(C)c2ccc(-c3ccc(C4CCN(C(C)C)CC4)cc3)cc12` [Example 86, 4-ethyl-3-(4-methanesulfonylphenyl)-1-methyl-6-{4-[1-(propan-2-yl)piperidin-4-yl]phenyl}-1,2-dihydroquinolin-2-one]: 1550 nM, 10400 nM and 406 nM.
The matching figures for `Cn1c(=O)c(-c2ccc(S(C)(=O)=O)cc2)cc2cc(-c3ccc(C4CCN(C5COC5)CC4)cc3)ccc21` [Example 87, 3-(4-methanesulfonylphenyl)-1-methyl-6-{4-[1-(oxetan-3-yl)piperidin-4-yl]phenyl}-1,2-dihydroquinolin-2-one]: 30000 nM, ≥ 50000 nM and 416 nM.

Broadly, the IC50 is the concentration that inhibits the measured activity by half.
